From paper PMC12259978 (Scientific Reports, 2025)

Key:
[1] = molecular target: T1, tyrosinase (Agaricus bisporus, UniProt C7FF04); assay: Tyrosinase inhibitory assay; format: biochemical; settings: read-out: % inhibition of tyrosinase
[2] = molecular target: T1, tyrosinase; assay: Enzyme kinetic study; format: biochemical

T1 sequence (C7FF04 whole entry): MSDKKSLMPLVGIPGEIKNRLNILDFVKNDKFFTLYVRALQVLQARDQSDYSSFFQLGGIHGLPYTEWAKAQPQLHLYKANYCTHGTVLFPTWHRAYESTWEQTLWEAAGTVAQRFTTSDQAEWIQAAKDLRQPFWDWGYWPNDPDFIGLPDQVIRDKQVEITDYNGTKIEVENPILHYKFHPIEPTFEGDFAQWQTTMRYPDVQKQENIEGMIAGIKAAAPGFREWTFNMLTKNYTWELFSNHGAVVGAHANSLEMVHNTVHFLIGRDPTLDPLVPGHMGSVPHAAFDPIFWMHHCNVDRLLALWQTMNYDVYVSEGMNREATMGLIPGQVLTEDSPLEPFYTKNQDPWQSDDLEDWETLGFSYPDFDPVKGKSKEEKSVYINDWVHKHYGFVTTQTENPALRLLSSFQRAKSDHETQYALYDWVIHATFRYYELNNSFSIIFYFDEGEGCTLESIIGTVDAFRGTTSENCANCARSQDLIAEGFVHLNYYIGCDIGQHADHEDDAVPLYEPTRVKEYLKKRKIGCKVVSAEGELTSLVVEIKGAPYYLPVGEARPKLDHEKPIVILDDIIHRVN

SMILES | inhibition at 50 µM [1] [%] | Ki [2] [µM] | type of inhibition ([2]; Lineweaver-Burk plot, Vmax unchanged, Km increased)
O=C(CSc1nc2ccccc2cc1C=Nn1c(S)nnc1-c1ccccc1)Nc1ccccc1 [12a, 2-((3-(((3-mercapto-5-phenyl-4H-1,2,4-triazol-4-yl)imino)methyl)quinolin-2-yl)thio)-N-phenylacetamide] | 32.2 | – | –
O=C(CSc1nc2ccccc2cc1C=Nn1c(S)nnc1-c1ccccc1)Nc1ccccc1Cl [12b, N-(2-chlorophenyl)-2-((3-(((3-mercapto-5-phenyl-4H-1,2,4-triazol-4-yl)imino)methyl)quinolin-2-yl)thio)acetamide] | 55.7 | – | –
O=C(CSc1nc2ccccc2cc1C=Nn1c(S)nnc1-c1ccccc1)Nc1ccc(Cl)cc1 [12d, N-(4-chlorophenyl)-2-((3-(((3-mercapto-5-phenyl-4H-1,2,4-triazol-4-yl)imino)methyl)quinolin-2-yl)thio)acetamide] | 66 | – | –
O=C(CSc1nc2ccccc2cc1C=Nn1c(S)nnc1-c1ccccc1)Nc1ccc(Cl)cc1Cl [12e, N-(2,4-dichlorophenyl)-2-((3-(((3-mercapto-5-phenyl-4H-1,2,4-triazol-4-yl)imino)methyl)quinolin-2-yl)thio)acetamide] | 48.3 | – | –
COc1ccc(NC(=O)CSc2nc3ccccc3cc2C=Nn2c(S)nnc2-c2ccccc2)cc1 [12f, 2-((3-(((3-Mercapto-5-phenyl-4H-1,2,4-triazol-4-yl)imino)methyl)quinolin-2-yl)thio)-N-(4-methoxyphenyl)acetamide] | 40.9 | – | –
Cc1ccc(NC(=O)CSc2nc3ccccc3cc2C=Nn2c(S)nnc2-c2ccccc2)cc1 [12g, 2-((3-(((3-Mercapto-5-phenyl-4H-1,2,4-triazol-4-yl)imino)methyl)quinolin-2-yl)thio)-N-(p-tolyl)acetamide] | 51.4 | – | –
Cc1ccccc1NC(=O)CSc1nc2ccccc2cc1C=Nn1c(S)nnc1-c1ccccc1 [12h, 2-((3-(((3-Mercapto-5-phenyl-4H-1,2,4-triazol-4-yl)imino)methyl)quinolin-2-yl)thio)-N-(o-tolyl)acetamide] | 46 | – | –
Cc1cccc(NC(=O)CSc2nc3ccccc3cc2C=Nn2c(S)nnc2-c2ccccc2)c1C [12i, N-(2,3-dimethylphenyl)-2-((3-(((3-mercapto-5-phenyl-4H-1,2,4-triazol-4-yl)imino)methyl)quinolin-2-yl)thio)acetamide] | 43.8 | – | –
O=C(CSc1nc2ccccc2cc1C=Nn1c(S)nnc1-c1ccccc1)NCCc1ccccc1 [12j, 2-((3-(((3-Mercapto-5-phenyl-4H-1,2,4-triazol-4-yl)imino)methyl)quinolin-2-yl)thio)-N-phenethylacetamide] | 86.6 | 9.06 | competitive inhibitor
